Data taken from patent US10807992B2, “Single enantiomer antiparasitic compounds” (priority 2017, dated 2020).

Test system: Ixodes scapularis
Experiment: In vitro contact activity against adult ticks (coated vial), I. scapularis
Details: for mortality at 0.006 µM: Trial 1, dose 0.006 μM; for mortality at 0.024 µM: Trial 1, dose 0.024 μM; for mortality at 0.098 µM: Trial 1, dose 0.098 μM; for mortality at 0.39 µM: Trial 1, dose 0.39 μM; for mortality at 1.56 µM: Trial 1, dose 1.56 μM; for mortality at 6.25 µM: Trial 1, dose 6.25 μM; for mortality at 25 µM: Trial 1, dose 25 μM; for mortality at 100 µM: Trial 1, dose 100 μM
Procedure: Rhipicephalus sanguineus, Dermacentor variabilis, Amblyomma americanum, (Ecto Services, Inc., Henderson, N.C.) and Ixodes scapularis (Oklahoma State University, Stillwater, Okla.) aged between 2-4 weeks post molt were held in an environmental chamber at 24° C., 80% humidity with 12-hour light/dark cycles.
For tick assays, vial caps were pre-drilled with a single hole in the center of each cap to allow air exchange. A filter paper (Whatman Grade 540 2.1 cm) was placed in the lid of each vial. An aliquot from each compound stock was added to an acetone/triton solution to achieve the desired top doses for the study. Serial dilutions were conducted from the top dose (i.e. 100 ppm) to achieve the desired titration range for EC50 and EC90 determination. For R. sanguineus, D. variabilis, and A. americanum, the final DMSO concentration in each test vial was 0.5%. For I. scapularis, compounds were solubilized directly in an acetone/triton solution due to I. scapularis' sensitivity to DMSO. A 459 μL aliquot of each compound formulation was transferred to a vial containing a Whatman Grade 540 2.1 cm filter paper. Vials were immediately placed on an unheated roller unit to allow for an even coating of the vial walls. After vials were coated, 41 μL of each compound formulation was added to the filter paper embedded in each vial cap. Each cap was allowed to dry. The vials were loosely capped and allowed to dry for a minimum of four hours in a chemical fume hood.
Compounds tested were: the C1 racemate, C1 (R) enantiomer, and the C1 (S) enantiomer. For Trial 3, the C1 (R) enantiomer and the C1 (S) enantiomer were further chiral purified to achieve >99% purity.
Ten adult ticks were added to each vial and held at 24° C., 80% humidity with 12-hour light/dark cycles. Adult ticks were assessed for percent mortality at various time points between 2 hours and 48 hours post infestation. Ticks were stimulated on a heated roller unit and evaluated. Ticks showing no movement, or very slow and uncoordinated movement were noted as dead.

Q: How did the mortality at 0.006 µM (2 h, Rep1) turn out when O=C(CC(F)(F)F)N1CC2(C1)OCc1cc(C3=NSC(c4cc(Cl)c(F)c(Cl)c4)(C(F)(F)F)C3)ccc12 (racemic) [C1 racemate, 1-[6-[5-(3,5-dichloro-4-fluoro-phenyl)-5-(trifluoromethyl)-4H-isothiazol-3-yl]spiro[1H-isobenzofuran-3,3′-azetidine]-1′-yl]-3,3,3-trifluoro-propan-1-one] was run?
A: 0%

Q: And the mortality at 0.006 µM (2 h, Rep2)?
A: 0%

Q: What about the mortality at 0.024 µM (2 h, Rep1) of the same compound?
A: 0%

Q: And the mortality at 0.024 µM (2 h, Rep2)?
A: 0%

Q: What about the mortality at 0.098 µM (2 h, Rep1) of the same compound?
A: 0%

Q: What about the mortality at 0.098 µM (2 h, Rep2) of the same compound?
A: 0%

Q: What about the mortality at 0.39 µM (2 h, Rep1) of the same compound?
A: 0%

Q: What about the mortality at 0.39 µM (2 h, Rep2) of the same compound?
A: 0%

Q: What about the mortality at 1.56 µM (2 h, Rep1) of the same compound?
A: 0%

Q: What about the mortality at 1.56 µM (2 h, Rep2) of the same compound?
A: 0%

Q: What about the mortality at 6.25 µM (2 h, Rep1) of the same compound?
A: 0%

Q: And the mortality at 6.25 µM (2 h, Rep2)?
A: 0%

Q: And the mortality at 25 µM (2 h, Rep1)?
A: 0%

Q: And the mortality at 25 µM (2 h, Rep2)?
A: 0%

Q: What about the mortality at 100 µM (2 h, Rep1) of the same compound?
A: 0%

Q: And the mortality at 100 µM (2 h, Rep2)?
A: 0%

Q: What about the mortality at 0.006 µM (6 h, Rep1) of the same compound?
A: 0%

Q: And the mortality at 0.006 µM (6 h, Rep2)?
A: 0%

Q: What about the mortality at 0.024 µM (6 h, Rep1) of the same compound?
A: 0%

Q: What about the mortality at 0.024 µM (6 h, Rep2) of the same compound?
A: 0%

Q: And the mortality at 0.098 µM (6 h, Rep1)?
A: 0%

Q: And the mortality at 0.098 µM (6 h, Rep2)?
A: 0%

Q: What about the mortality at 0.39 µM (6 h, Rep1) of the same compound?
A: 0%

Q: What about the mortality at 0.39 µM (6 h, Rep2) of the same compound?
A: 0%

Q: What about the mortality at 1.56 µM (6 h, Rep1) of the same compound?
A: 0%

Q: And the mortality at 1.56 µM (6 h, Rep2)?
A: 0%

Q: And the mortality at 6.25 µM (6 h, Rep1)?
A: 0%

Q: And the mortality at 6.25 µM (6 h, Rep2)?
A: 0%

Q: And the mortality at 25 µM (6 h, Rep1)?
A: 10%

Q: And the mortality at 25 µM (6 h, Rep2)?
A: 40%

Q: And the mortality at 100 µM (6 h, Rep1)?
A: 100%

Q: And the mortality at 100 µM (6 h, Rep2)?
A: 50%

Q: What about the mortality at 0.006 µM (12 h, Rep1) of the same compound?
A: 0%

Q: What about the mortality at 0.006 µM (12 h, Rep2) of the same compound?
A: 0%

Q: And the mortality at 0.024 µM (12 h, Rep1)?
A: 0%

Q: What about the mortality at 0.024 µM (12 h, Rep2) of the same compound?
A: 0%

Q: And the mortality at 0.098 µM (12 h, Rep1)?
A: 0%

Q: What about the mortality at 0.098 µM (12 h, Rep2) of the same compound?
A: 0%

Q: And the mortality at 0.39 µM (12 h, Rep1)?
A: 0%

Q: What about the mortality at 0.39 µM (12 h, Rep2) of the same compound?
A: 10%

Q: And the mortality at 1.56 µM (12 h, Rep1)?
A: 0%

Q: And the mortality at 1.56 µM (12 h, Rep2)?
A: 0%

Q: What about the mortality at 6.25 µM (12 h, Rep1) of the same compound?
A: 0%

Q: And the mortality at 6.25 µM (12 h, Rep2)?
A: 70%

Q: What about the mortality at 25 µM (12 h, Rep1) of the same compound?
A: 50%

Q: And the mortality at 25 µM (12 h, Rep2)?
A: 70%

Q: And the mortality at 100 µM (12 h, Rep1)?
A: 100%

Q: What about the mortality at 100 µM (12 h, Rep2) of the same compound?
A: 100%

Q: And the mortality at 0.006 µM (24 h, Rep1)?
A: 0%

Q: And the mortality at 0.006 µM (24 h, Rep2)?
A: 0%

Q: And the mortality at 0.024 µM (24 h, Rep1)?
A: 0%

Q: What about the mortality at 0.024 µM (24 h, Rep2) of the same compound?
A: 30%

Q: What about the mortality at 0.098 µM (24 h, Rep1) of the same compound?
A: 0%

Q: What about the mortality at 0.098 µM (24 h, Rep2) of the same compound?
A: 20%

Q: What about the mortality at 0.39 µM (24 h, Rep1) of the same compound?
A: 50%

Q: What about the mortality at 0.39 µM (24 h, Rep2) of the same compound?
A: 50%

Q: What about the mortality at 1.56 µM (24 h, Rep1) of the same compound?
A: 10%

Q: What about the mortality at 1.56 µM (24 h, Rep2) of the same compound?
A: 30%

Q: And the mortality at 6.25 µM (24 h, Rep1)?
A: 80%

Q: And the mortality at 6.25 µM (24 h, Rep2)?
A: 100%

Q: And the mortality at 25 µM (24 h, Rep1)?
A: 90%

Q: What about the mortality at 25 µM (24 h, Rep2) of the same compound?
A: 100%

Q: What about the mortality at 100 µM (24 h, Rep1) of the same compound?
A: 100%

Q: And the mortality at 100 µM (24 h, Rep2)?
A: 100%

Q: What about the mortality at 0.006 µM (48 h, Rep1) of the same compound?
A: 10%

Q: What about the mortality at 0.006 µM (48 h, Rep2) of the same compound?
A: 0%

Q: And the mortality at 0.024 µM (48 h, Rep1)?
A: 10%

Q: And the mortality at 0.024 µM (48 h, Rep2)?
A: 30%

Q: And the mortality at 0.098 µM (48 h, Rep1)?
A: 0%

Q: What about the mortality at 0.098 µM (48 h, Rep2) of the same compound?
A: 60%

Q: And the mortality at 0.39 µM (48 h, Rep1)?
A: 70%

Q: And the mortality at 0.39 µM (48 h, Rep2)?
A: 100%

Q: What about the mortality at 1.56 µM (48 h, Rep1) of the same compound?
A: 90%

Q: What about the mortality at 1.56 µM (48 h, Rep2) of the same compound?
A: 80%

Q: And the mortality at 6.25 µM (48 h, Rep1)?
A: 100%

Q: What about the mortality at 6.25 µM (48 h, Rep2) of the same compound?
A: 100%

Q: And the mortality at 25 µM (48 h, Rep1)?
A: 100%

Q: What about the mortality at 25 µM (48 h, Rep2) of the same compound?
A: 100%

Q: And the mortality at 100 µM (48 h, Rep1)?
A: 100%

Q: What about the mortality at 100 µM (48 h, Rep2) of the same compound?
A: 100%
